Test results reported in patent US8703764B2, “Combination therapy for dementia, depression and apathy” (priority 2003, dated 2014).

Assays:
[1] = test system: apathy in a patient with Parkinson's disease; experiment: Case report Example 5: severe apathy in a patient with Parkinson's disease; format: in vivo, human; details: before admission to hospital
Excerpt: A person retired sailor developed Parkinson's disease more than 5 years before admission to hospital. After the onset of Parkinson's disease they developed decreased motivation and decreased interest. The severity of the apathy progressed to a near total lack of initiative. A trial of methylphenidate for apathy was unsuccessful. They were admitted to hospital with anxiety, severe apathy and constipation. They were unable to function at home leading to caregiver burn out.
Core symptoms of delirium were absent. A shuffling gait devoid of heel strike or toe push was observed. Arm swing was decreased. This person described decreased motivation in face of clear enjoyment of family visits and the sunshine outside. Their capacity for projective pleasure was preserved. They were satisfied with their accomplishments over their life. They felt their quality of life was reduced by their lack initiative. Objective mood and affect were flat. Thought form was marked by latency but progressed logically to a goal oriented conclusion. Thought content was free of delusions or hallucinations. Language was mildly impaired with paraphasic errors noted. Remote memories were difficult to recall and approximately correct. Their sense of humor and capacity for abstraction were preserved.
This was judged consistent with Parkinson's disease by the registered psychologist.
They could walk four lengths of the hallway. […]

[2] = test system: patient with depressed mood, lack of pleasure and absent initiative; experiment: Case report Example 6: depressed mood, lack of pleasure and absent initiative in a retired nurse; format: in vivo, human
Description: A 75 year retired nurse lived independently in the community until 2 months prior to admission.
Moclobemide was commenced at 200 mg. daily on day 4, increased to 300 mg. daily and day 6 and continued at 300 mg. daily.
Risperidone was commenced at 0.5 mg daily on day 7, discontinued on day 14 then restarted at 0.5 mg daily alternating with 0.25 mg. daily and continued as such.

[3] = test system: patient with early onset Alzheimer's disease; experiment: Case report Example 4: patient with early onset Alzheimer's disease, anxiety and depressed mood; details: for adverse effect leading to discontinuation: human, in vivo

In the case of `COC(=O)C(c1ccccc1)C1CCCCN1` (stereo not drawn) [methylphenidate], the trial for apathy [1] is reported as “unsuccessful”.

`O=C(NCCN1CCOCC1)c1ccc(Cl)cc1` [moclobemide, p-chloro-N-(2-morpholinoethyl) benzamide] was tested, and the “late afternoon quality of mood and mobility of affect” value ([2]; by Day 6, moclobemide 200 mg daily from day 4, 300 mg daily from day 6, before risperidone) was “improved”.

`Cc1nc2n(c(=O)c1CCN1CCC(c3noc4cc(F)ccc34)CC1)CCCC2` [risperidone, 3-[2-[4-(6-fluoro-1,2-benzisoxazol-3-yl)piperidino]ethyl]-2-methyl-6,7,8,9-tetrahydro-4H-pyrido-[1,2-a]pyrimidin-4-one] was tested, and the extrapyramidal side effects ([2]; shortly after Day 13, risperidone 0.5 mg daily) was “mild extrapyramidal symptoms emerged” and the “adverse effect leading to discontinuation” value [3] was “emergence of dystonia”.

For `COc1ccc(C(CN(C)C)C2(O)CCCCC2)cc1` (stereo not drawn) [venlafaxine], the “adverse effect leading to discontinuation” value [3] was “excessive sweating” and the depressed mood ([3]; venlafaxine 150 mg daily, donepezil 10 mg daily commenced) was “responded”.
